Laboratory results as given in patent publication US12404303B2, “Polypeptide and use thereof” (NANJING ANJI BIOLOGICAL TECHNOLOGY CO., LTD., priority 2019, dated 2025).
No end group written: not given here.

Experiments:
streptococcus pneumoniae = assay: Mouse pneumonia model, bacterial pneumonia; assay type: in vivo, BALB/C mice; conditions: average values±standard deviation
Text: (§1) A mouse pneumonia model was successfully established by using a nasal drip method. BALB/C mice with a body weight of 18-24 g were selected, and then anesthetized with ether on day 0, day 1 and day 2, respectively, prepared streptococcus pneumoniae bacteria solution, adenovirus concentrated solution, mycoplasma pneumoniae, chlamydia pneumoniae, protozoa and pneumonia fungi were slowly dropped into the nasal cavity of the mice, so that the bacteria solutions entered the trachea and bronchi, and the bacteria solutions were prevented from flowing into the esophagus during the operation to avoid inactivation of the bacteria solutions, so that the mouse pneumonia model was established. After the model was successfully established, the polypeptide according to the present disclosure was administered, as shown in FIG. 7 and Table 9. […] The experimental results are represented on the basis of average values±standard deviation.

protozoa = assay: Mouse pneumonia model, protozoal pneumonia; assay type: in vivo, BALB/C mice; conditions: average values±standard deviation
Text: as §1

mycoplasma pneumoniae = assay: Mouse pneumonia model, mycoplasma pneumonia; assay type: in vivo, BALB/C mice; conditions: average values±standard deviation
Text: as §1

chlamydia pneumoniae = assay: Mouse pneumonia model, chlamydia pneumonia; assay type: in vivo, BALB/C mice; conditions: average values±standard deviation
Text: as §1

pulmonary infections = assay: Mouse pneumonia model, pneumonia caused by pulmonary infections; assay type: in vivo, BALB/C mice; conditions: average values±standard deviation
Text: as §1

adenovirus = assay: Mouse pneumonia model, viral pneumonia; assay type: in vivo, BALB/C mice; conditions: average values±standard deviation
Text: as §1

pneumonia fungi = assay: Mouse pneumonia model, fungal pneumonia; assay type: in vivo, BALB/C mice; conditions: average values±standard deviation
Text: as §1

[1] = system: SD rats with renal fibrosis; assay: Renal fibrosis animal model (ureter ligation), TGF-β1 in serum; assay type: in vivo; conditions: 7.5 mg/kg subcutaneous twice a day, 14 days, vs model group; FIG. 4
Method: A renal fibrosis animal model was established. SD rats were anesthetized with 4% chloral hydrate, injected with 1 mL/100 g intraperitoneally, fixed to an operation board, and sterilized in an operation area for later use. […] Muscular layers and abdominal walls were sewed layer by layer, the suture was disinfected with alcohol. After SD rats woke up, the rats were put into a cage for feeding. In the blank group, ureter was not ligated, and other steps were the same. Then, the animals fell into a blank group, a model group, and polypeptide administration groups, and the administration was started on the second day after the operation, twice a day for 14 days. After administration for 14 days, blood was taken and supernatant was taken to detect the content of TGF-β1 in serum. [table]

myelofibrosis model mice = assay: Myelofibrosis model induced by rh EPO; assay type: in vivo, Kunming mice; set-up: WBC / Hb / MCV / RDW: unit not given here; conditions: 10 mg/kg subcutaneous twice a day, 28 days; for Hb / MCV / RDW / WBC: peripheral blood; for content of TGF-β1 in serum: mouse serum, vs model group, FIG. 5
Method: There were 10 mice in each group. The normal control group was injected with normal saline (0.3 mL for each mouse), and the remaining groups were injected with rh EPO (0.1 unit/gram, body weight, 0.3 mL for each mouse) intraperitoneally every day. After induction for two days, drug therapy was started, subcutaneous injection was given twice a day, and after continuous administration for 28 days, the mouse heart was punctured for blood extraction, some blood was used for peripheral blood analysis, some blood was centrifuged, and the supernatant was taken to measure the content of TGF-β1 in the serum of mice. [table]

[2] = system: SD rats with bleomycin-induced pulmonary fibrosis; assay: Bleomycin-induced pulmonary fibrosis animal model; assay type: in vivo; conditions: bleomycin 5 mg/kg intratracheal, polypeptides 7.5 mg/kg subcutaneous twice a day, positive drug 25 mg/kg intragastric once a day, 14 days
Method: SD rats were anesthetized by intraperitoneal injection of 1 mL/100 g 4% chloral hydrate. After anesthesia, the rats were fixed and their necks were disinfected by using cotton with 75% alcohol. The skin of the rat neck was longitudinally cut with scissors, and the fascia and muscle were longitudinally bluntly torn with tweezers to expose the trachea. A syringe was inserted into the trachea to inject 5 mg/kg bleomycin, while a blank group was injected with an equal amount of normal saline. Then a rat plate was quickly erected and rotated, the rats' breathing was observed, the neck wound was sterilized after rotation and was sewn, and an amoxicillin anti-inflammatory drug was sprinkled on the suture. After the operation, the rats were put back into a dry and clean cage for resting, waiting was performed for awakening. The rats were awakened after about 1-2 hours, and then fed normally. On the 7th day after modeling, modeling group animals randomly fell into a model group, a Nintedanib positive drug group, polypeptide I, II, III and IV dosage groups, and a normal control group, and the groups were administered separately for an administration cycle of 14 days. Living situations of rats were observed every day and their weights were weighed.

LX-2 cells = assay: Proliferation of LX-2 cells induced by TGF-β1 (MTT, in vitro hepatic fibrosis model); assay type: cell-based; conditions: polypeptide 1 μmol/L, TGF-β1 10 ng/mL, 48 hours; for OD value: MTT, 570 nm
Method: LX-2 cells were cultured in 1640 medium containing 10% FBS, and cultured in an incubator with 5% CO2 at 37° C. The medium was replaced every two days, and subcultured according to the cell density. The LX-2 cells in a logarithmic growth phase were digested with 0.25% pancreatin to make cell suspension. The density of the cells was adjusted to 4×10^5 cells/mL, and the cells were inoculated into 96-well plates with 100 μL per well and cultured overnight. On the second day, TGF-β1 was added to induce the proliferation and activation of the LX-2 cells, and the polypeptide drugs were administrated at 1 μmol/L. TGF-β1 (10 ng/mL) was added to each group except the blank group. The cells were cultured in the incubator for 48 hours, and then 10 μL of MTT was added to each well. The MTT was removed after 4 hours, and 150 μL of DMSO was added for reaction for 5 min. An OD value was measured by a microplate reader at 570 nm.

[3] = system: cardiac fibroblasts of rats; assay: Proliferation of cardiac fibroblasts of rats (MTT, in vitro myocardial fibrosis model); assay type: cell-based; conditions: 1 μmol/L; for Optical density values, 12 hours / Optical density values, 24 hours / Optical density values, 48 hours: MTT, 570 nm; for inhibition of the proliferation of cardiac fibroblasts of rats: at 24 hours and 48 hours
Method: The inhibitory effect of a polypeptide on cardiac fibroblasts of rats was detected by MTT assay. Cells were cultured in a DMEM medium containing 10% of FBS, the cytoplasm was made into 1×10^5/mL cell suspension, and 100 μL per well was inoculated into a 96-well plate. After the cells adhered to the wall, the medium was replaced with a serum-free DMEM medium, and the serum-free medium was discarded after 24 hours. The cells were cultured with different polypeptides of 1 μmol/L, and 5 multiple wells were set for each concentration. After 12, 24 and 48 hours separately, 10 μL of MTT was added to each well. After 4 hours, MTT was sucked out, and 150 μL of DMSO was added to each well. After reaction for 5 min, an OD value was measured at 570 nm by a microplate reader.

skin fibrosis model mice = assay: Skin fibrosis model induced by bleomycin, HYP in skin tissue; assay type: in vivo, C57/BL black mice; conditions: skin tissue of the mouse back; 10 mg/kg subcutaneous twice a day, 28 days, vs model group; FIG. 6
Method: Bleomycin (10 μg/mL) was injected subcutaneously every day for 28 days to form skin fibrosis. During the modeling period, the administration groups were given polypeptide drugs every day for treatment, with 10 mice in each group. After modeling, the mice were killed on the next day, and the skin tissue of the mouse back was taken to detect the content of HYP in the skin tissue. [table]

## Penicillin [reference compound]
Streptococcus pneumoniae
  Inhibitory effect on pulmonary infections, Bacterial pneumonia: 35.05 ± 5.75
protozoa
  Inhibitory effect on pulmonary infections, Protozoal pneumonia: 39.04 ± 3.71
Mycoplasma pneumoniae
  Inhibitory effect on pulmonary infections, Mycoplasma pneumonia: 41.77 ± 5.73
Chlamydia pneumoniae
  Inhibitory effect on pulmonary infections, Chlamydia pneumonia: 30.75 ± 3.31
Pulmonary infections
  Inhibitory effect on pulmonary infections, Pneumonia caused by pulmonary infections: 35.67 ± 4.55
adenovirus
  Inhibitory effect on pulmonary infections, Viral pneumonia: 38.07 ± 2.27
Pneumonia fungi
  Inhibitory effect on pulmonary infections, Fungal pneumonia: 38.61 ± 3.82

## RGADRAGGGGPRCWCGE (cysteine pairing not given here) [Polypeptide II]
Streptococcus pneumoniae
  Inhibitory effect on pulmonary infections, Bacterial pneumonia: 49.25 ± 9.48
protozoa
  Inhibitory effect on pulmonary infections, Protozoal pneumonia: 63.60 ± 6.16
Mycoplasma pneumoniae
  Inhibitory effect on pulmonary infections, Mycoplasma pneumonia: 54.69 ± 5.72
[1]
  content of TGF-β1 in serum: highly significantly different from the model group (***P<0.001)
Chlamydia pneumoniae
  Inhibitory effect on pulmonary infections, Chlamydia pneumonia: 57.81 ± 5.21
Pulmonary infections
  Inhibitory effect on pulmonary infections, Pneumonia caused by pulmonary infections: 66.15 ± 5.87
Myelofibrosis model mice
  Hb: 151 ± 19
  MCV: 51 ± 9
  RDW: 26 ± 3
  WBC: 5.61 ± 1.43
[2]
  Survival rate (%): 85.7%
LX-2 cells
  inhibition of proliferation and activation of LX-2 cells, difference from model group: highly significantly different from the model group (**P<0.01)
  OD value: 0.59 ± 0.02
[3]
  Optical density values, 12 hours: 0.325 ± 0.004
  Optical density values, 24 hours: 0.377 ± 0.015
  Optical density values, 48 hours: 0.518 ± 0.015
  inhibition of the proliferation of cardiac fibroblasts of rats: could inhibit the proliferation
adenovirus
  Inhibitory effect on pulmonary infections, Viral pneumonia: 70.33 ± 9.27
Skin fibrosis model mice
  expression of HYP in the skin tissue: highly significantly different from the model group (***P<0.001)
Pneumonia fungi
  Inhibitory effect on pulmonary infections, Fungal pneumonia: 65.32 ± 3.07

## COC(=O)c1ccc2c(c1)NC(=O)/C2=C(\Nc1ccc(N(C)C(=O)CN2CCN(C)CC2)cc1)c1ccccc1 [Positive drug, Nintedanib, reference compound]
[2]
  Survival rate (%): 85.7%

## RGADRAGGGGPRCYRGE [Polypeptide III]
Streptococcus pneumoniae
  Inhibitory effect on pulmonary infections, Bacterial pneumonia: 42.29 ± 8.76
protozoa
  Inhibitory effect on pulmonary infections, Protozoal pneumonia: 64.29 ± 8.07
Mycoplasma pneumoniae
  Inhibitory effect on pulmonary infections, Mycoplasma pneumonia: 43.93 ± 5.34
[1]
  content of TGF-β1 in serum: highly significantly different from the model group (**P<0.01)
Chlamydia pneumoniae
  Inhibitory effect on pulmonary infections, Chlamydia pneumonia: 54.40 ± 5.41
Pulmonary infections
  Inhibitory effect on pulmonary infections, Pneumonia caused by pulmonary infections: 56.18 ± 3.31
Myelofibrosis model mice
  content of TGF-β1 in serum: highly significantly different from the model group (**P<0.01)
  Hb: 145 ± 17
  MCV: 53 ± 8
  RDW: 28 ± 1
  WBC: 5.79 ± 1.23
[2]
  Survival rate (%): 78.6%
LX-2 cells
  inhibition of proliferation and activation of LX-2 cells, difference from model group: significantly different from the model group (*P<0.05)
  OD value: 0.63 ± 0.03
[3]
  Optical density values, 12 hours: 0.329 ± 0.012
  Optical density values, 24 hours: 0.402 ± 0.012
  Optical density values, 48 hours: 0.612 ± 0.018
  inhibition of the proliferation of cardiac fibroblasts of rats: could inhibit the proliferation
adenovirus
  Inhibitory effect on pulmonary infections, Viral pneumonia: 65.49 ± 9.94
Skin fibrosis model mice
  expression of HYP in the skin tissue: highly significantly different from the model group (*P<0.05)
Pneumonia fungi
  Inhibitory effect on pulmonary infections, Fungal pneumonia: 62.88 ± 5.49

## RGADRAGGGGPRCYCGE (cysteine pairing not given here) [Polypeptide IV]
Streptococcus pneumoniae
  Inhibitory effect on pulmonary infections, Bacterial pneumonia: 45.05 ± 3.25
protozoa
  Inhibitory effect on pulmonary infections, Protozoal pneumonia: 49.04 ± 3.17
Mycoplasma pneumoniae
  Inhibitory effect on pulmonary infections, Mycoplasma pneumonia: 43.27 ± 5.63
[1]
  content of TGF-β1 in serum: highly significantly different from the model group (**P<0.01)
Chlamydia pneumoniae
  Inhibitory effect on pulmonary infections, Chlamydia pneumonia: 38.85 ± 3.11
Pulmonary infections
  Inhibitory effect on pulmonary infections, Pneumonia caused by pulmonary infections: 55.57 ± 4.25
Myelofibrosis model mice
  content of TGF-β1 in serum: highly significantly different from the model group (**P<0.01)
  Hb: 155 ± 16
  MCV: 54 ± 5
  RDW: 24 ± 1
  WBC: 5.83 ± 1.07
[2]
  Survival rate (%): 92.9%
LX-2 cells
  inhibition of proliferation and activation of LX-2 cells, difference from model group: significantly different from the model group (*P<0.05)
  OD value: 0.64 ± 0.03
[3]
  Optical density values, 12 hours: 0.309 ± 0.010
  Optical density values, 24 hours: 0.385 ± 0.008
  Optical density values, 48 hours: 0.598 ± 0.013
  inhibition of the proliferation of cardiac fibroblasts of rats: could inhibit the proliferation
adenovirus
  Inhibitory effect on pulmonary infections, Viral pneumonia: 58.07 ± 2.07
Skin fibrosis model mice
  expression of HYP in the skin tissue: highly significantly different from the model group (*P<0.05)
Pneumonia fungi
  Inhibitory effect on pulmonary infections, Fungal pneumonia: 48.61 ± 3.22
